In patent US20070128217A1 (priority 2003, published 2007):

Key:
[1] = test system: rabbit serum obtained by immunizing a rabbit with the SARS-CoV strain Frankfurt 1; assay type: binding; set-up: Binding of a rabbit serum to linear peptides / Binding of a rabbit serum to looped peptides / Rabbit serum linear peptides / Rabbit serum looped peptides / Binding of a rabbit serum to linear peptides of protein N of SARS-CoV Urbani (Rabbit serum linear peptides) / Binding of a rabbit serum to looped/cyclic peptides of protein N of SARS-CoV Urbani (Rabbit serum looped peptides): unit not given here
[2] = test system: control sera (pooled serum of ten healthy LUMC hospital workers; commercial negative donor pooled serum from the Dutch bloodbank); assay type: binding, human; set-up: Binding of Control serum LUMC to linear peptides / Binding of Control serum Blood-bank to linear peptides / Binding of Control serum LUMC to looped peptides / Binding of Control Serum Blood-Bank to Looped peptides / Binding of Control serum LUMC to linear peptides of the protein M of SARS-CoV Urbani / Binding of Control serum Blood-bank to linear peptides of the protein M of SARS-CoV Urbani / Binding of Control serum LUMC to looped peptides of the protein M of SARS-CoV Urbani / Binding of Control Serum Blood-Bank to Looped peptides of the protein M of SARS-CoV Urbani: unit not given here
[3] = test system: antibodies in sera from SARS patients (sera 1a, 1b, 2, 6, 37, 62, London, SARS-yellow, SARS-green); assay type: binding, human; set-up: Binding of serum 6 to linear peptides of protein X1 of SARS-CoV Urbani / Binding of serum 37 to linear peptides of protein X1 of SARS-CoV Urbani / Binding of serum 6 to looped/cyclic peptide (PEPSCAN-ELISA) / Binding of serum 37 to looped/cyclic peptide (PEPSCAN-ELISA) / Binding of serum 37 to looped/cyclic peptides of protein X1 of SARS-CoV Urbani / Binding of serum 6 to linear peptides of protein X2 / Binding of serum 37 to linear peptides of protein X2 / Binding of serum 37 to looped/cyclic peptides of protein X2 of SARS-CoV Urbani / Binding of serum 6 to linear peptides of protein M of SARS-CoV Urbani / Binding of serum 37 to linear peptides of protein M of SARS-CoV Urbani / Binding of serum 6 to looped/cyclic peptides of protein M of SARS-CoV Urbani / Binding of serum 37 to looped/cyclic peptides of protein M of SARS-CoV Urbani / Binding of serum 6 to linear peptides of protein X3 of SARS-CoV Urbani / Binding of serum 37 to linear peptides of protein X3 of SARS-CoV Urbani / Binding of serum 37 to looped/cyclic peptides of protein X3 of SARS-CoV Urbani / Binding of serum 6 to linear peptides of protein X4 of SARS-CoV Urbani / Binding of serum 37 to linear peptides of protein X4 of SARS-CoV Urbani / Binding of serum 37 to looped/cyclic peptides of protein X4 of SARS-CoV Urbani / Binding of serum 6 to linear peptides of protein X5 of SARS-CoV Urbani / Binding of serum 37 to linear peptides of protein X5 of SARS-CoV Urbani / Binding of serum 37 to looped/cyclic peptides of protein X5 of SARS-CoV Urbani / Binding of serum 6 to linear peptides of protein N of SARS-CoV Urbani / Binding of serum 37 to linear peptides of protein N of SARS-CoV Urbani / Binding of serum 6 to linear peptide (PEPSCAN-ELISA) / Binding of serum 1a to looped/cyclic peptides of protein N of SARS-CoV Urbani / Binding of serum 1b to looped/cyclic peptides of protein N of SARS-CoV Urbani / Binding of serum 2 to looped/cyclic peptides of protein N of SARS-CoV Urbani / Binding of serum 6 to looped/cyclic peptides of protein N of SARS-CoV Urbani / Binding of serum 37 to looped/cyclic peptides of protein N of SARS-CoV Urbani / Binding of serum 62 to looped/cyclic peptides of protein N of SARS-CoV Urbani / Binding of serum London to looped/cyclic peptides of protein N of SARS-CoV Urbani / Binding of serum SARS-green to looped/cyclic peptides of protein N of SARS-CoV Urbani: unit not given here

YIIKLVFLWLLWPVT
Rabbit serum linear peptides [1]: 0.4 | Rabbit serum looped peptides [1]: 0.2 | Binding of Control Serum Blood-Bank to Looped peptides of the protein M of SARS-CoV Urbani [2]: 0.8 | Binding of Control serum Blood-bank to linear peptides of the protein M of SARS-CoV Urbani [2]: 0.8 | Binding of Control serum LUMC to linear peptides of the protein M of SARS-CoV Urbani [2]: 0.5 | Binding of Control serum LUMC to looped peptides of the protein M of SARS-CoV Urbani [2]: 0.8 | Binding of serum 1a to linear peptides of protein M of SARS-CoV Urbani [3]: 0.8 | Binding of serum 1a to looped/cyclic peptides of protein M of SARS-CoV Urbani [3]: 0.8 | Binding of serum 1b to linear peptides of protein M of SARS-CoV Urbani [3]: 0.6 | Binding of serum 1b to looped/cyclic peptides of protein M of SARS-CoV Urbani [3]: 0.8 | Binding of serum 2 to linear peptides of protein M of SARS-CoV Urbani [3]: 0.9 | Binding of serum 2 to looped/cyclic peptides of protein M of SARS-CoV Urbani [3]: 0.6 | Binding of serum 6 to linear peptides of protein M of SARS-CoV Urbani [3]: 0.4 | Binding of serum 6 to looped/cyclic peptides of protein M of SARS-CoV Urbani [3]: 0.8 | Binding of serum 37 to linear peptides of protein M of SARS-CoV Urbani [3]: 0.7 | Binding of serum 37 to looped/cyclic peptides of protein M of SARS-CoV Urbani [3]: 0.7 | Binding of serum 62 to linear peptides of protein M of SARS-CoV Urbani [3]: 0.8 | Binding of serum 62 to looped/cyclic peptides of protein M of SARS-CoV Urbani [3]: 0.7 | Binding of serum London to linear peptides of protein M of SARS-CoV Urbani [3]: 0.3 | Binding of serum London to looped/cyclic peptides of protein M of SARS-CoV Urbani [3]: 0.3 | Binding of serum SARS-green to linear peptides of protein M of SARS-CoV Urbani [3]: 0.4 | Binding of serum SARS-green to looped/cyclic peptides of protein M of SARS-CoV Urbani [3]: 0.4 | Binding of serum SARS-yellow to linear peptides of protein M of SARS-CoV Urbani [3]: 0.1 | Binding of serum SARS-yellow to looped/cyclic peptides of protein M of SARS-CoV Urbani [3]: 0.5

YNTRGNTYSTAWLCA
Rabbit serum linear peptides [1]: 0.7 | Rabbit serum looped peptides [1]: 0.0 | Binding of Control Serum Blood-Bank to Looped peptides [2]: 0.5 | Binding of Control serum Blood-bank to linear peptides [2]: 0.7 | Binding of Control serum LUMC to linear peptides [2]: 0.6 | Binding of Control serum LUMC to looped peptides [2]: 0.5 | Binding of serum 1a to linear peptides of protein X5 of SARS-CoV Urbani [3]: 0.8 | Binding of serum 1a to looped/cyclic peptides of protein X5 of SARS-CoV Urbani [3]: 0.3 | Binding of serum 1b to linear peptides of protein X5 of SARS-CoV Urbani [3]: 0.6 | Binding of serum 1b to looped/cyclic peptides of protein X5 of SARS-CoV Urbani [3]: 0.2 | Binding of serum 2 to linear peptides of protein X5 of SARS-CoV Urbani [3]: 0.6 | Binding of serum 2 to looped/cyclic peptides of protein X5 of SARS-CoV Urbani [3]: 0.4 | Binding of serum 6 to linear peptides of protein X5 of SARS-CoV Urbani [3]: 0.8 | Binding of serum 6 to looped/cyclic peptides of protein X5 of SARS-CoV Urbani [3]: 0.4 | Binding of serum 37 to linear peptides of protein X5 of SARS-CoV Urbani [3]: 0.7 | Binding of serum 37 to looped/cyclic peptides of protein X5 of SARS-CoV Urbani [3]: 0.0 | Binding of serum 62 to linear peptides of protein X5 of SARS-CoV Urbani [3]: 0.7 | Binding of serum 62 to looped/cyclic peptides of protein X5 of SARS-CoV Urbani [3]: 0.2 | Binding of serum London to linear peptides of protein X5 of SARS-CoV Urbani [3]: 0.8 | Binding of serum London to looped/cyclic peptides of protein X5 of SARS-CoV Urbani [3]: 0.2 | Binding of serum SARS-green to linear peptides of protein X5 of SARS-CoV Urbani [3]: 0.7 | Binding of serum SARS-green to looped/cyclic peptides of protein X5 of SARS-CoV Urbani [3]: 0.2 | Binding of serum SARS-yellow to linear peptides of protein X5 of SARS-CoV Urbani [3]: 0.4 | Binding of serum SARS-yellow to looped/cyclic peptides of protein X5 of SARS-CoV Urbani [3]: 0.6

YRIGNYKLNTDHAGS
Rabbit serum linear peptides [1]: 0.6 | Rabbit serum looped peptides [1]: 0.1 | Binding of Control Serum Blood-Bank to Looped peptides of the protein M of SARS-CoV Urbani [2]: 0.6 | Binding of Control serum Blood-bank to linear peptides of the protein M of SARS-CoV Urbani [2]: 0.6 | Binding of Control serum LUMC to linear peptides of the protein M of SARS-CoV Urbani [2]: 0.3 | Binding of Control serum LUMC to looped peptides of the protein M of SARS-CoV Urbani [2]: 0.6 | Binding of serum 1a to linear peptides of protein M of SARS-CoV Urbani [3]: 0.7 | Binding of serum 1a to looped/cyclic peptides of protein M of SARS-CoV Urbani [3]: 0.8 | Binding of serum 1b to linear peptides of protein M of SARS-CoV Urbani [3]: 0.6 | Binding of serum 1b to looped/cyclic peptides of protein M of SARS-CoV Urbani [3]: 0.6 | Binding of serum 2 to linear peptides of protein M of SARS-CoV Urbani [3]: 0.5 | Binding of serum 2 to looped/cyclic peptides of protein M of SARS-CoV Urbani [3]: 0.5 | Binding of serum 6 to linear peptides of protein M of SARS-CoV Urbani [3]: 0.2 | Binding of serum 6 to looped/cyclic peptides of protein M of SARS-CoV Urbani [3]: 0.8 | Binding of serum 37 to linear peptides of protein M of SARS-CoV Urbani [3]: 0.8 | Binding of serum 37 to looped/cyclic peptides of protein M of SARS-CoV Urbani [3]: 0.7 | Binding of serum 62 to linear peptides of protein M of SARS-CoV Urbani [3]: 0.7 | Binding of serum 62 to looped/cyclic peptides of protein M of SARS-CoV Urbani [3]: 0.6 | Binding of serum London to linear peptides of protein M of SARS-CoV Urbani [3]: 0.5 | Binding of serum London to looped/cyclic peptides of protein M of SARS-CoV Urbani [3]: 0.4 | Binding of serum SARS-green to linear peptides of protein M of SARS-CoV Urbani [3]: 0.2 | Binding of serum SARS-green to looped/cyclic peptides of protein M of SARS-CoV Urbani [3]: 0.3 | Binding of serum SARS-yellow to linear peptides of protein M of SARS-CoV Urbani [3]: 0.1 | Binding of serum SARS-yellow to looped/cyclic peptides of protein M of SARS-CoV Urbani [3]: 0.6
